Measured values published in patent publication US6737383B1, “Herbicidal oxadiazolidines” (priority 1999, dated 2004).

Columns and labels:
blackgrass = test: Test B pre/postemergence blackgrass; type: in vivo, Alopecurus myosuroides
How it was run: (§1)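 Herbicidal effect was estimated by eye on a ten-point control scale after plants spent twelve to sixteen days in a greenhouse following soil or foliar treatment. Foliar sprays targeted plants at one to four leaves; all doses were formulated in a non-phytotoxic solvent with surfactant.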

soybean = test: Test B pre/postemergence soybean; type: in vivo, Glycine max
How it was run: as §1

giant foxtail = test: Test B pre/postemergence giant foxtail; type: in vivo, Setaria faberii
How it was run: as §1

cocklebur = test: Test B pre/postemergence cocklebur; type: in vivo, Xanthium strumarium
How it was run: as §1

wheat = test: Test B pre/postemergence wheat; type: in vivo, Triticum aestivum
How it was run: as §1

velvetleaf = test: Test B pre/postemergence velvetleaf; type: in vivo, Abutilon theophrasti
How it was run: as §1

purple nutsedge = test: Test B pre/postemergence purple nutsedge; type: in vivo, Cyperus rotundus
How it was run: as §1

crabgrass = test: Test B pre/postemergence crabgrass; type: in vivo, Digitaria sanguinalis
How it was run: as §1

morningglory = test: Test B pre/postemergence morningglory; type: in vivo, Ipomoea hederacea
How it was run: as §1

smallflower flatsedge = test: Test B flood test smallflower flatsedge; type: in vivo, Cyperus difformis
How it was run: (§2)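 Plants were grown to the 2-leaf stage before treatment with test chemical, then held in a greenhouse for twelve to sixteen days. Injury was visually rated against untreated controls on a 0–10 scale, where 0 is no effect and 10 is complete control.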

duck salad = test: Test B flood test duck salad; type: in vivo, Heteranthera limosa
How it was run: as §2

surinam grass = test: Test B pre/postemergence surinam grass; type: in vivo, Brachiaria decumbens
How it was run: as §1

wild oat = test: Test B pre/postemergence wild oat; type: in vivo, Avena fatua
How it was run: as §1

corn = test: Test B pre/postemergence corn; type: in vivo, Zea mays
How it was run: as §1

bedstraw = test: Test B pre/postemergence bedstraw; type: in vivo, Galium aparine
How it was run: as §1

rape = test: Test B pre/postemergence rape; type: in vivo, Brassica napus; settings: for Rape plant response rating / Plant response rating, Rape: Preemergence, scale of 0 to 10 where 0 is no effect and 10 is complete control
How it was run: as §1

pigweed = test: Test B pre/postemergence pigweed; type: in vivo, Amaranthus retroflexus
How it was run: as §1

rice = test: Test B flood test rice; type: in vivo, Oryza sativa
How it was run: as §2

sugar beet = test: Test B pre/postemergence sugar beet; type: in vivo, Beta vulgaris
How it was run: as §1

bamyardgrass = test: Test B flood test barnyardgrass; type: in vivo, Echinochloa crus-galli
How it was run: as §2

[1] = Preemergence, Rate 62 g/ha, scale of 0 to 10 where 0 is no effect and 10 is complete control
[2] = Preemergence, Rate 250 g/ha, scale of 0 to 10 where 0 is no effect and 10 is complete control
[3] = Preemergence, Rate 500 g/ha, scale of 0 to 10 where 0 is no effect and 10 is complete control
[4] = Rate 62 g/ha, Postemergence, scale of 0 to 10 where 0 is no effect and 10 is complete control
[5] = Rate 125 g/ha, Postemergence, scale 0 to 10
[6] = Rate 125 g/ha, Preemergence, scale of 0 to 10 where 0 is no effect and 10 is complete control
[7] = Rate 500 g/ha, Postemergence, scale 0 to 10, 0 no effect, 10 complete control
[8] = Rate 62 g/ha, headed Pre-emergence (flood test species), scale 0 to 10 (0 no effect, 10 complete control)
[9] = Rate 125 g/ha, Pre-emergence, flood test species, scale 0 to 10 where 0 is no effect and 10 is complete control
[10] = Rate 250 g/ha, Pre-emergence, flood-test species, scale 0 to 10, 0 is no effect, 10 is complete control
[11] = Rate 500 g/ha, Pre-emergence, flood test species, scale 0 to 10 (0 no effect, 10 complete control)
[12] = Preemergence, Rate 125 g/ha, scale of 0 to 10 where 0 is no effect and 10 is complete control
[13] = Preemergence, Rate 250 g/ha, scale 0 to 10 (0 no effect, 10 complete control)
[14] = Rate 62 g/ha, flood test species, Pre-emergence, visual evaluation after twelve to sixteen days
[15] = Rate 125 g/ha, under heading Pre-emergence, flood test species, visual evaluation after twelve to sixteen days
[16] = Rate 250 g/ha, Pre-emergence (flood test species), scale 0 to 10, 0 is no effect, 10 is complete control
[17] = Rate 500 g/ha, Pre-emergence section of Table B, 0 to 10 scale (0 no effect, 10 complete control)

Cc1noc(C)c1Cn1c(=O)on(C(=O)N(c2ccc(F)cc2)C(C)C)c1=O [Compound 259]
3: Cocklebur plant response rating (cocklebur; [7]) | Wheat plant response rating (wheat; [7]) | Corn plant response rating (corn; [2]) | Plant response rating, Corn (corn; [3]) | Sugarbeets plant response rating (sugar beet; [7])
8: Morningglory plant response rating (morningglory; [7]) | B. signalgrass plant response rating (surinam grass; [2]) | Plant response rating, Redroot pigweed (pigweed; [3])
5: Plant response rating, Velvetleaf (velvetleaf; [3]) | B. signalgrass plant response rating (surinam grass; [6])
4: Velvetleaf plant response rating (velvetleaf; [2]) | Crabgrass plant response rating (crabgrass; [1]) | Crabgrass plant response rating (crabgrass; [6]) | Wild oats plant response rating (wild oat; [2]) | Plant response rating, Wild oats (wild oat; [3])
1: Velvetleaf plant response rating (velvetleaf; [7])
7: Plant response rating, Crabgrass (crabgrass; [3]) | Plant response rating (0 to 10; 0 is no effect, 10 is complete control), Morningglory (morningglory; Rate 250 g/ha, Postemergence) | Bedstraw plant response rating (bedstraw; [1]) | Redroot pigweed plant response rating (pigweed; [7])
10: Blackgrass plant response rating (blackgrass; [2]) | Plant response rating, Blackgrass (blackgrass; [3]) | Blackgrass plant response rating (blackgrass; [6]) | Plant response rating, Giant foxtail (giant foxtail; [3]) | Bedstraw plant response rating (bedstraw; [2]) | Plant response rating, Bedstraw (bedstraw; [3]) | Bedstraw plant response rating (bedstraw; [6])
6: Soybean plant response rating (soybean; [7]) | Plant response rating (0 to 10; 0 is no effect, 10 is complete control), Redroot pigweed (pigweed; Rate 250 g/ha, Postemergence)
0: Blackgrass plant response rating (blackgrass; [4]) | Blackgrass plant response rating (blackgrass; [5]) | Plant response rating (0 to 10; 0 is no effect, 10 is complete control), Blackgrass (blackgrass; Rate 250 g/ha, Postemergence) | Blackgrass plant response rating (blackgrass; [7]) | Soybean plant response rating (soybean; [1]) | Soybean plant response rating (soybean; [2]) | Plant response rating, Soybean (soybean; [3]) | Soybean plant response rating (soybean; [6]) | Plant response rating (0 to 10; 0 is no effect, 10 is complete control), Giant foxtail (giant foxtail; Rate 250 g/ha, Postemergence) | Giant foxtail plant response rating (giant foxtail; [7]) | Cocklebur plant response rating (cocklebur; [1]) | Cocklebur plant response rating (cocklebur; [2]) | Plant response rating, Cocklebur (cocklebur; [3]) | Cocklebur plant response rating (cocklebur; [4]) | Cocklebur plant response rating (cocklebur; [6]) | Wheat plant response rating (wheat; [1]) | Wheat plant response rating (wheat; [2]) | Plant response rating, Wheat (wheat; [3]) | Wheat plant response rating (wheat; [6]) | Nutsedge plant response rating (purple nutsedge; [1]) | Nutsedge plant response rating (purple nutsedge; [2]) | Plant response rating, Nutsedge (purple nutsedge; [3]) | Nutsedge plant response rating (purple nutsedge; [6]) | Plant response rating (0 to 10; 0 is no effect, 10 is complete control), Nutsedge (purple nutsedge; Rate 250 g/ha, Postemergence) | Nutsedge plant response rating (purple nutsedge; [7]) | Plant response rating (0 to 10; 0 is no effect, 10 is complete control), Crabgrass (crabgrass; Rate 250 g/ha, Postemergence) | Crabgrass plant response rating (crabgrass; [7]) | Morningglory plant response rating (morningglory; [1]) | Morningglory plant response rating (morningglory; [2]) | Plant response rating, Morningglory (morningglory; [3]) | Morningglory plant response rating (morningglory; [6]) | S. Flatsedge plant response rating (smallflower flatsedge; [8]) | S. Flatsedge plant response rating (smallflower flatsedge; [9]) | S. Flatsedge plant response rating (smallflower flatsedge; [10]) | S. Flatsedge plant response rating (smallflower flatsedge; [11]) | Ducksalad plant response rating (duck salad; [8]) | Ducksalad plant response rating (duck salad; [9]) | Ducksalad plant response rating (duck salad; [10]) | Ducksalad plant response rating (duck salad; [11]) | B. signalgrass plant response rating (surinam grass; [4]) | B. signalgrass plant response rating (surinam grass; Rate 125 g/ha, Postemergence, scale 0 (no effect) to 10 (complete control)) | Plant response rating (0 to 10; 0 is no effect, 10 is complete control), B. signalgrass (surinam grass; Rate 250 g/ha, Postemergence) | B. signalgrass plant response rating (surinam grass; [7]) | Wild oats plant response rating (wild oat; [7]) | Corn plant response rating (corn; [1]) | Corn plant response rating (corn; [4]) | Corn plant response rating (corn; [5]) | Corn plant response rating (corn; [6]) | Plant response rating (0 to 10; 0 is no effect, 10 is complete control), Corn (corn; Rate 250 g/ha, Postemergence) | Corn plant response rating (corn; [7]) | Bedstraw plant response rating (bedstraw; [4]) | Bedstraw plant response rating (bedstraw; [5]) | Rape plant response rating (rape; Rate 62 g/ha) | Rape plant response rating (rape; Rate 125 g/ha) | Plant response rating (0 to 10; 0 is no effect, 10 is complete control), Rape (rape; Rate 250 g/ha, Postemergence) | Redroot pigweed plant response rating (pigweed; [1]) | Redroot pigweed plant response rating (pigweed; [6]) | Rice plant response rating (rice; [8]) | Rice plant response rating (rice; [9]) | Rice plant response rating (rice; [10]) | Rice plant response rating (rice; [11]) | Sugarbeets plant response rating (sugar beet; [1]) | Sugarbeets plant response rating (sugar beet; [2]) | Plant response rating, Sugarbeets (sugar beet; [3]) | Sugarbeets plant response rating (sugar beet; [6]) | Barnyardgrass plant response rating (bamyardgrass; [8]) | Barnyardgrass plant response rating (bamyardgrass; [9]) | Barnyardgrass plant response rating (bamyardgrass; [10]) | Barnyardgrass plant response rating (bamyardgrass; [11])
9: Giant foxtail plant response rating (giant foxtail; [1]) | Giant foxtail plant response rating (giant foxtail; [2]) | Giant foxtail plant response rating (giant foxtail; [6]) | Plant response rating, B. signalgrass (surinam grass; [3]) | Plant response rating, Rape (rape; Rate 500 g/ha)
2: Blackgrass plant response rating (blackgrass; [1]) | Cocklebur plant response rating (cocklebur; [5]) | Plant response rating (0 to 10; 0 is no effect, 10 is complete control), Cocklebur (cocklebur; Rate 250 g/ha, Postemergence) | Velvetleaf plant response rating (velvetleaf; [1]) | Velvetleaf plant response rating (velvetleaf; [6]) | B. signalgrass plant response rating (surinam grass; [1]) | Wild oats plant response rating (wild oat; [1]) | Wild oats plant response rating (wild oat; [6]) | Redroot pigweed plant response rating (pigweed; [2])

CC(C)N(C(=O)n1oc(=O)n(C(C)C2CC2)c1=O)c1ccccc1 (stereo not shown) [Compound 699]
4: Plant response rating, Morningglory (morningglory; [12]) | Rice plant response rating (rice; [17]) | Plant response rating, Sugarbeets (sugar beet; [12]) | Plant response rating, Barnyardgrass (0 to 10 scale, 0 is no effect, 10 is complete control) (bamyardgrass; [14]) | Barnyardgrass plant response rating (0 to 10 scale, 0 is no effect, 10 is complete control) (bamyardgrass; [15])
2: Plant response rating, Soybean (soybean; [12]) | Plant response rating, Velvetleaf (velvetleaf; [12]) | Morningglory plant response rating (morningglory; [1]) | Plant response rating, Rape (rape; Rate 125 g/ha)
8: Blackgrass plant response rating (blackgrass; [1]) | S. Flatsedge plant response rating (smallflower flatsedge; [17]) | Ducksalad plant response rating (0 to 10 scale, 0 is no effect, 10 is complete control) (duck salad; [15]) | B. signalgrass plant response rating (surinam grass; [1]) | Plant response rating, Corn (corn; [13]) | Barnyardgrass plant response rating (bamyardgrass; [16]) | Barnyardgrass plant response rating (bamyardgrass; [17])
7: S. Flatsedge plant response rating (0 to 10 scale, 0 is no effect, 10 is complete control) (smallflower flatsedge; [15])
10: Plant response rating, Blackgrass (blackgrass; [12]) | Plant response rating, Blackgrass (blackgrass; [13]) | Plant response rating, Blackgrass (blackgrass; [3]) | Giant foxtail plant response rating (giant foxtail; [1]) | Plant response rating, Giant foxtail (giant foxtail; [12]) | Crabgrass plant response rating (crabgrass; [1]) | Plant response rating, Crabgrass (crabgrass; [12]) | Plant response rating, Crabgrass (crabgrass; [13]) | Plant response rating, B. signalgrass (surinam grass; [3]) | Plant response rating, Wild oats (wild oat; [12])
3: Plant response rating, Wheat (wheat; [12]) | Plant response rating, Ducksalad (0 to 10 scale, 0 is no effect, 10 is complete control) (duck salad; [14]) | Corn plant response rating (corn; [1]) | Redroot pigweed plant response rating (pigweed; [1]) | Plant response rating, Redroot pigweed (pigweed; [12]) | Sugarbeets plant response rating (sugar beet; [1])
0: Soybean plant response rating (soybean; [1]) | Cocklebur plant response rating (cocklebur; [1]) | Plant response rating, Cocklebur (cocklebur; [12]) | Plant response rating, Cocklebur (cocklebur; [13]) | Plant response rating, Cocklebur (cocklebur; [3]) | Wheat plant response rating (wheat; [1]) | Velvetleaf plant response rating (velvetleaf; [1]) | Nutsedge plant response rating (purple nutsedge; [1]) | Plant response rating, Nutsedge (purple nutsedge; [12]) | Bedstraw plant response rating (bedstraw; [1]) | Plant response rating, Bedstraw (bedstraw; [13]) | Plant response rating, Bedstraw (bedstraw; [3]) | Rape plant response rating (rape; Rate 62 g/ha) | Plant response rating, Rice (0 to 10 scale, 0 is no effect, 10 is complete control) (rice; [14]) | Rice plant response rating (0 to 10 scale, 0 is no effect, 10 is complete control) (rice; [15])
6: Plant response rating, S. Flatsedge (0 to 10 scale, 0 is no effect, 10 is complete control) (smallflower flatsedge; [14]) | Plant response rating, Corn (corn; [12])
9: S. Flatsedge plant response rating (smallflower flatsedge; [16]) | Ducksalad plant response rating (duck salad; [16]) | Ducksalad plant response rating (duck salad; [17]) | Plant response rating, B. signalgrass (surinam grass; [12]) | Plant response rating, B. signalgrass (surinam grass; [13]) | Wild oats plant response rating (wild oat; [1])
5: Rice plant response rating (rice; [16])
